One data set concerns Phakopsora pachyrhizi. Kind of data set: Protective control of soy bean rust on soy beans caused by Phakopsora pachyrhizi (greenhouse). To be noted: % diseased leaf area, soy bean seedlings sprayed 1 day before inoculation, untreated control 90. In kind it is in vivo. Here is the method: (§1) The active substances were formulated separately or together as a stock solution comprising 25 mg of active substance which was made up to 10 ml using a mixture of acetone and/or dimethyl sulfoxide (DMSO) and the emulsifier Wettol EM 31 (wetting agent having emulsifying and dispersing action based on ethoxylated alkylphenols) in a volume ratio of solvent/emulsifier of 99 to 1. This solution was then made up to 100 ml using water. This stock solution was diluted with the solvent/emulsifier/water mixture described to the active substance concentration given below.
Leaves of pot-grown soy bean seedlings were sprayed to run-off with an aqueous suspension, containing the concentration of active ingredient or their mixture as described below. The plants were allowed to air-dry. The trial plants were cultivated for 1 day in a greenhouse chamber at 23-27° C. and a relative humidity between 60 and 80%. Then the plants were inoculated with spores of Phakopsora pachyrhizi. To ensure the success the artificial inoculation, the plants were transferred to a humid chamber with a relative humidity of about 95% and 20 to 24° C. for 24 h. The trial plants were cultivated for fourteen days in a greenhouse chamber at 23-27° C. and a relative humidity between 60 and 80%. The extent of fungal attack on the leaves was visually assessed as % diseased leaf area.

In a further data set the test system is Pyricularia oryzae. The format is cell-based. The note with it: relative growth vs active substance-free control (=100%), absorption 405 nm, day 7 after inoculation.
Another data set concerns Pyrenophora teres. Kind of data set: Activity against net blotch Pyrenophora teres in the microtiter test. The format is cell-based. To be noted: relative growth vs active substance-free control (=100%), absorption 405 nm, day 7 after inoculation.
For a further data set, the system named is Plasmopara viticola. The format is in vivo. The note with it: % diseased leaf area on lower leaf surface, grape cuttings sprayed 1 day before inoculation, untreated control 100.
The next data set relates to Septoria tritici. Kind of data set: Preventative control of leaf blotch on wheat caused by Septoria tritici (Septtr P1, greenhouse). The note with it: % diseased leaf area, wheat seedlings sprayed 1 day before inoculation, untreated control 80. The format is in vivo. Here is the method: as §1
Leaves of pot-grown wheat seedling were sprayed to run-off with an aqueous suspension of the active compound or their mixture, prepared as described. The plants were allowed to air-dry. At the following day the plants were inoculated with an aqueous spore suspension of Septoria tritici. Then the trial plants were immediately transferred to a humid chamber at 18-22° C. and a relative humidity close to 100%. After 4 days the plants were transferred to a chamber with 18-22° C. and a relative humidity close to 70%. After 4 weeks the extent of fungal attack on the leaves was visually assessed as % diseased leaf area.

Structures are written as SMILES.

Turning to `CCN1C(=O)C(Cl)=C(Sc2ccccc2S)C1=O`, the “Disease (%) at 1000 pm Phakpa P1” value in the data set with Phakopsora pachyrhizi was 3%.
`CCN1C(=O)C(Cl)=C(Nc2ccccc2O)C1=O` [drawing 60]: the “Growth at 32 ppm (%)” value with Pyricularia oryzae is on record as 10%.
As for `CCN1C(=O)C=C(Nc2ccccc2O)C1=O` [drawing 58], the “Growth at 32 ppm (%)” value in the data set on Pyrenophora teres is 12%.
As for `CN1C(=O)C(N)=C(Cl)C1=O`, the “Disease (%) at 1000 pm Plasvi P1” value in the data set on Plasmopara viticola came out at 7%.
On to `CSC1=C(SC)C(=O)N(C)C1=O` [drawing 56], for which the “Growth at 32 ppm (%)” value in the data set on Pyrenophora teres is reported as 0%.
In the case of `CN1C(=O)C(Oc2ccccc2)=C(Oc2ccccc2)C1=O`, the “Growth at 32 ppm (%)” value in the data set on Pyrenophora teres worked out at 1%.
As to `CSC1=C(SC)C(=O)N(C)C1=O` [drawing 59], the “Growth at 32 ppm (%)” value in the data set on Pyricularia oryzae came out at 0%.
`COC1=C(OC)C(=O)N(C)C1=O`: in the data set on Plasmopara viticola, the “Disease (%) at 1000 pm Plasvi P1” value amounted to 20%.
`CCN1C(=O)C(Cl)=C(Nc2ccccc2O)C1=O` [drawing 57]: the “Growth at 32 ppm (%)” value in the data set on Pyrenophora teres came out at 15%.
On to `CCN1C(=O)C(Cl)=C(Sc2ccccc2O)C1=O`, for which the “Disease (%) at 1000 pm Septtr P1” value in the data set with Septoria tritici is 1%.
On to `CCN1C(=O)C=C(Nc2ccccc2O)C1=O` [drawing 61], for which the “Growth at 32 ppm (%)” value in the data set on Pyricularia oryzae is recorded as 11%.
Consider `CN(C)C1=C(C#N)C(=O)N(C)C1=O`, for which the melting point came out at 120 °C.
